The assay addresses T1, Glucocorticoid receptor (Homo sapiens, UniProt P04150).
T1 sequence (P04150 whole entry): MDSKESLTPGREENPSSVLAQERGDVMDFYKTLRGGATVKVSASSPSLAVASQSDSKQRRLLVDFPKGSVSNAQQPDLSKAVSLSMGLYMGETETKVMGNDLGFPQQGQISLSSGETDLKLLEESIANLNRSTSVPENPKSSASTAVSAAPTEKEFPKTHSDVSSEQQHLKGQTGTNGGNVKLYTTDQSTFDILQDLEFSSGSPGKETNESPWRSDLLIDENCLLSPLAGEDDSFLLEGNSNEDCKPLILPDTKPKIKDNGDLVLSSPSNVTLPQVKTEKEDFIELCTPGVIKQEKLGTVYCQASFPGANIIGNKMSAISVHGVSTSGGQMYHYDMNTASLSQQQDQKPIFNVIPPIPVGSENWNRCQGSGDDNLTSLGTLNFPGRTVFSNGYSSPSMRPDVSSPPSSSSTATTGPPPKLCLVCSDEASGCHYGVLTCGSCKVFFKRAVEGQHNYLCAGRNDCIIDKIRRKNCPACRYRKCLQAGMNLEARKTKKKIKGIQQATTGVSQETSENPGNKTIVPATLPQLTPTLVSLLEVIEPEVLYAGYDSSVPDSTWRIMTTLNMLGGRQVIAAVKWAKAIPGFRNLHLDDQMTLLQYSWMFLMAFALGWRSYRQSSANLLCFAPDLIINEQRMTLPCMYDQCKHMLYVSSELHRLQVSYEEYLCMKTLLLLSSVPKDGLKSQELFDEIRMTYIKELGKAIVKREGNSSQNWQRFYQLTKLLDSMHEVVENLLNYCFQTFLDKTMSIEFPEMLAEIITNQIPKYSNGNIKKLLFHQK
In words: Binding affinity to glucocorticoid receptor by GR binding assay.

Consider five compounds from ChEMBL document CHEMBL1145454, “Endiandrin A, a potent glucocorticoid receptor binder isolated from the Australian plant Endiandra anthropophagorum” (J Nat Prod, 2007).

Usually IC50 stands for the concentration at which inhibition is half-maximal.

`COc1ccc([C@@H]2[C@@H](C)[C@H](C)[C@H]2c2ccc(OC)c(OC)c2)cc1OC` [DI-O-METHYLENDIANDRIN A] showed a half-maximal inhibitory concentration (IC50) of 13 µM. Then `COc1cc([C@@H]2[C@@H](C)[C@H](C)[C@H]2c2ccc(O)c(OC)c2)ccc1O` [ENDIANDRIN A], with 0.9 µM. In turn, `COc1cc([C@H]2O[C@@H](c3ccc(O)c(OC)c3)[C@H](C)[C@@H]2C)ccc1O` [NECTANDRIN B] came in with an IC50 of 27 µM. Then `COc1cc(C[C@@H](C)[C@H](C)Cc2ccc(O)c(OC)c2)ccc1O` [(-)-DIHYDROGUAIARETICACID], with 35 µM; and `COc1cc([C@@H]2[C@@H](C)[C@H](C)[C@H]2c2ccc(OC(C)=O)c(OC)c2)ccc1OC(C)=O` [DI-O-ACETYLENDIANDRIN A], with 34 µM.
